Experimental data published in US20260007679A1, “METHODS OF TREATING CANCER USING 3-(4-((4-(MORPHOLINOMETHYL)BENZYL)OXY)-1-OXOISOINDOLIN-2-YL)PIPERIDINE-2,6-DIONE” (Celgene Corporation, priority 2012, published 2026).
Where two headings read alike, the source gives them in different places.

Tested on: normal donor peripheral blood mononuclear cells
Assay: Immunoglobulin M and G production
Format: cell-based
Details: Homo sapiens, PBMC
Experimental: Immunoglobulin M and G (“IgG and IgM”) production was measured from normal donor peripheral blood mononuclear cells by culturing in the presence of the B cell differentiation factors recombinant human IL-2 (20U/mL), IL-10 (50 ng/mL), IL-15 (10 ng/mL), His-tagged CD40 Ligand (50 ng/mL), polyHistidine mouse IgG1 antibody (5 μg/mL), and ODN 2006-Human TLR9 ligand (10 μg/mL) for 4 days, followed by IL-2, IL-10, IL-15, and IL-6 (50 ng/mL) for an additional 3 days. IgM and IgG were measured by ELISA.

Question: `O=C1CC[C@H](N2Cc3c(OCc4ccc(CN5CCOCC5)cc4)cccc3C2=O)C(=O)N1` [Compound I-S, (S)-3-(4-((4-(morpholinomethyl)benzyl)oxy)-1-oxoisoindolin-2-yl)piperidine-2,6-dione] was tested. Which IC50 (read-out: IgG production IC50) did it give?
Answer: Its IC50 is 2.1 nM.

Question: And the IC50 (read-out: IgM production IC50)?
Answer: The IC50 was 0.35 nM.
